Data on 6 compounds can be found in patent publication US20220041641A1, “QUATERNARY AMMONIUM SALTS AS INHIBITORS OF TRIMETHYLAMINE PRODUCTION” (Senda Biosciences, Inc., priority 2018, published 2022).

As usually defined, the IC50 is the point on the concentration scale where inhibition reaches its midpoint. Usually Papp A→B stands for the apparent permeability from the apical to the basolateral side of a cell layer. As usually defined, the Papp B→A is the apparent permeability from the basolateral to the apical side of a cell layer.

The target in data set [1] is CutC from Clostridium sporogenes (Clostridium sporogenes, UniProt A0AAE4Z0A8). The experiment in a line: Cell-based assay for TMA production from a native producer (C. sporogenes). Particulars: read-out: IC50 Whole cell C. sporogenes; d9-TMA from 1 mM d9-choline, 5 h, 37° C.; run once; value 10 given when no fit or % TMA remaining at 10 μM higher than 15%. The source says:
In each bacterium, CutC was modified into its activated form by a cognate activating enzyme, CutD (protein EDU36696.1 for C. sporogenes; protein WP_004249185.1 for P. mirabilis). […] Trimethylamine may subsequently be converted by human enzymes such as flavin monooxygenase 3 to trimethylamine N-oxide, which might be associated with negative health consequences in humans.
A compound's ability to inhibit CutC from Proteus mirabilis and C. sporogenes from converting choline into trimethylamine was tested in cells as described. A BHI blood plate was inoculated with a frozen stock of Proteus mirabilis or Clostridium sporogenes under anaerobic conditions. A single colony was isolated from the plate and inoculated into 5 mL BHI supplemented with 1 mM choline under anaerobic conditions. The liquid cultures were grown overnight at 37° C.
To prepare each sample, 300 μL of the saturated culture was then inoculated into a 30 mL dilution blank under anaerobic conditions. 1 mM (trimethyl-d9)-choline and a sufficient amount of a compound to obtain a final concentration of 10 μM were added to the inoculated dilution blank. […] The mixture was incubated at 37° C. for 5 h. […] After centrifugation, the samples were analyzed by LCMS to determine the amount of d9-TMA produced.

For data set [2], the target named is CutC from Proteus mirabilis (Proteus mirabilis, UniProt B4EYG1). As to the kind of experiment: Cell-based assay for TMA production from a native producer (P. mirabilis). Particulars: d9-TMA from 1 mM d9-choline, 5 h, 37° C.; value 10 given when no fit or % TMA remaining at 10 μM higher than 15%; read-out: Average IC50 Whole cell P. mirabilis. A digest of the protocol:
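Overnight anaerobic cultures of P. mirabilis or C. sporogenes, grown in BHI with 1 mM choline, were diluted and given 1 mM (trimethyl-d9)-choline plus compound at 10 μM final. After 5 h at 37° C., d9-TMA was quantified by LCMS.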

A further data set deals with CutC/D enzyme. The experiment in a line: Acute mouse model (plasma TMAO on choline diet). Type of data set: in vivo, male C57BL/6 mice. The procedure: The following acute mouse model may be used to determine inhibition of the CutC/D enzyme and thus the inhibition of the formation of trimethylamine (TMA) from choline.
On day 1, male C57BL/6 mice were given a chemically defined diet (Tekland Global Rodent Diet 2018) containing 1.0% choline (g/g) for the duration of the experiment. Concurrently on day 1, mice were orally gavaged with 200 μL of compounds of interest (formulated in water). Mice were orally gavaged with the compounds and vehicle control again on day 2 and day 3 at a fixed time. Twenty hours after the last gavage, mice were sacrificed, and plasma was collected and prepared for detection of trimethylamine-N-oxide (TMAO) via liquid chromatography with on-line tandem mass spectrometry (LC-MS/MS). Food consumption and mouse weight were measured each day.
Plasma samples were prepared for LCMS as follows: An aliquot of 20 μL plasma sample was protein precipitated with 200 μL internal standard solution (100 ng/mL Labetalol & 100 ng/mL Tolbutamide & 100 ng/mL Diclofenac in acetonitrile, the mixture was vortex-mixed and centrifuged at 4000 rpm for 15 min, 4° C. An aliquot of 100 μL supernatant was transferred to the sample plate for LCMS injection. 1 μL of sample was injected onto an LC column for TMAO LCMS analysis.
Concentrations of TMAO were determined with a calibration curve ranging 0.05-100 μM for d9-TMAO in control plasma.

The nature of data set [3]: Caco-2 permeability assay. The class given is in vitro ADME. Particulars: human. Here is the method:
Preparation of Caco-2 Cells: 50 μL and 25 mL of cell culture medium were added to each well of the Transwell insert and reservoir, respectively. The HTS transwell plates were incubated at 37° C., 5% CO2 for 1 hour before cell seeding. […] Cell culture medium was replaced every other day, beginning no later than 24 hours after initial plating.
Assessment of Cell Monolayer Integrity: Medium was removed from the reservoir and each Transwell insert and replaced with prewarmed fresh culture medium. Transepithelial electrical resistance (TEER) across the monolayer was measured using Millicell Epithelial Volt-Ohm measuring system (Millipore, USA). The Plate was returned to the incubator once the measurement was done. The TEER value was calculated according to the following equation: […]
Preparation of Solutions: 2 mM stock solutions in DMSO of control compounds were prepared and diluted with HBSS (10 mM HEPES, pH 7.4) to get 10 μM working solution. 0.2 mM stock solutions of test compounds in DMSO were prepared and diluted with HBSS (10 mM HEPES, pH 7.4 with 0.5% BSA) to get 1 μM working solution. Metoprolol, erythromycin and cimetidine were used as control compounds.
The Caco-2 plate was removed from the incubator. The monolayer was washed twice with pre-warmed HBSS (10 mM HEPES, pH 7.4). The plate was incubated at 37° C. for 30 minutes. To determine the rate of drug transport in the apical to basolateral direction, 125 μL of the working solution was added to the Transwell insert (apical compartment). A 50 μL sample was transferred immediately from the apical compartment to 200 μL of acetonitrile containing IS (100 nM alprazolam, 200 nM Caffeine and 100 nM tolbutamide) in a new 96-well plate as the initial donor sample (A-B) and it was vortexed at 1000 rpm for 10 minutes. The wells in the receiver plate (basolateral compartment) were filled with 235 μL of transport buffer. To determine the rate of drug transport in the basolateral to apical direction, 285 μL of the working solution were added to the receiver plate wells (basolateral compartment). A 50 μL sample was transferred immediately from the basolateral compartment to 200 μL of acetonitrile containing IS (100 nM alprazolam, 200 nM Caffeine and 100 nM tolbutamide) in a new 96-well plate as the initial donor sample (B-A) and it was vortexed at 1000 rpm for 10 minutes. The Transwell insert (apical compartment) was filled with 75 μL of transport buffer. The apical to basolateral direction and the basolateral to apical direction need to be done at the same time. The plates were incubated at 37° C. for 2 hours. At the end of the incubation, 50 μL samples from donor sides (apical compartment for Ap→Bl flux, and basolateral compartment for B1→Ap) and receiver sides (basolateral compartment for Ap→Bl flux, and apical compartment for B1→Ap) were transferred to wells of a new 96-well plate, followed by the addition of 4 volume of acetonitrile containing IS (100 nM alprazolam, 200 nM Caffeine and 100 nM tolbutamide). Samples were vortexed for 10 minutes, 50 μL samples were transferred to wells of a new 96-well plate, followed by the addition of 50 μL Hepes and 200 μL IS. All samples were vortexed for 10 minutes, and then centrifuged at 3,220 g for 40 minutes. An aliquot of 150 μL of the supernatant was mixed with an appropriate volume of ultra-pure water before LC-MS/MS analysis.
Apparent permeability (Papp) can be calculated for drug transport assays using the following equation: […]
Papp is apparent permeability (cm/s×10^−6);
Papp (B-A) indicates the apparent permeability coefficient in basolateral to apical direction, and
Papp (A-B) indicates the apparent permeability coefficient in apical to basolateral direction.
A general note: Caco-2 monolayers are a common model of the intestinal barrier.

Setting [4] is: pH 7.4, Caco-2, apical to basolateral, 1 μM, 2 hours, 37° C., read-out: Papp A-B.
[5] abbreviates: pH 7.4, Caco-2, basolateral to apical, 1 μM, 2 hours, 37° C., read-out: Papp B-A.

Values joined by “and” are separate entries in the source; they are usually repeats but may differ in a detail not shown here. Identical values can stand only once. Like-named read-outs stand apart in the source and are kept apart here.

Chain of CutC from Clostridium sporogenes (A0ABD6RTF0 entry or part of it): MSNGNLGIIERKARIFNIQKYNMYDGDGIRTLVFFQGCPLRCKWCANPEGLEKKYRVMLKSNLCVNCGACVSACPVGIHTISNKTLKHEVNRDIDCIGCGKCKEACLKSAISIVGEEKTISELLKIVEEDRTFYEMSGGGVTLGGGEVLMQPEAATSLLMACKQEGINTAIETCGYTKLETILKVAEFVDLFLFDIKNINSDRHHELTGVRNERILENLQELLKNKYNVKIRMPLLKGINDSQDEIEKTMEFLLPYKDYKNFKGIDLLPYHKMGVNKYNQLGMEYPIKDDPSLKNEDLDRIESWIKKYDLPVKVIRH
Chain of CutC from Clostridium sporogenes (A0AAE4Z0A8 entry or part of it): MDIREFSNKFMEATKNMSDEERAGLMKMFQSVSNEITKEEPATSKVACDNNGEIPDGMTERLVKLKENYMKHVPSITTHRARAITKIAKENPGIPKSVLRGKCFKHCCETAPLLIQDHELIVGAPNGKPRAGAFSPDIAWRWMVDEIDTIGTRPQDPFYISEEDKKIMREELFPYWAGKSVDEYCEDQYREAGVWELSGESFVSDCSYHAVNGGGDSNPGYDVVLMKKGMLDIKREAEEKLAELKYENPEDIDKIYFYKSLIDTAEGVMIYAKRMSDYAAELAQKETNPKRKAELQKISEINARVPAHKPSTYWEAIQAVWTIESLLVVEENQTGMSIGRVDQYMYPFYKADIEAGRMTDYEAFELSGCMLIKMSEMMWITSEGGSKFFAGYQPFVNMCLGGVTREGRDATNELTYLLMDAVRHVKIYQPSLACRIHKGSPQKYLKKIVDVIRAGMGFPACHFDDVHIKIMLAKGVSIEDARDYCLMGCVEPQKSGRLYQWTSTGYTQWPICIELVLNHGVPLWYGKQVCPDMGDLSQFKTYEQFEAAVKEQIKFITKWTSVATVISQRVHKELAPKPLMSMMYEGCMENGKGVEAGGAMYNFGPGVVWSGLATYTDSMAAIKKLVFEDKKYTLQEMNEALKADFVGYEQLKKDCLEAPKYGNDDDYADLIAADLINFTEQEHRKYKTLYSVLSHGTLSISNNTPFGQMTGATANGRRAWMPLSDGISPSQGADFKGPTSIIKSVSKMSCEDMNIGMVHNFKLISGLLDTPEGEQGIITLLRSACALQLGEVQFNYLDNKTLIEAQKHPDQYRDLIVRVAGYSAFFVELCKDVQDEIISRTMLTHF
Chain of CutC from Proteus mirabilis (B4EYG1 entry or part of it): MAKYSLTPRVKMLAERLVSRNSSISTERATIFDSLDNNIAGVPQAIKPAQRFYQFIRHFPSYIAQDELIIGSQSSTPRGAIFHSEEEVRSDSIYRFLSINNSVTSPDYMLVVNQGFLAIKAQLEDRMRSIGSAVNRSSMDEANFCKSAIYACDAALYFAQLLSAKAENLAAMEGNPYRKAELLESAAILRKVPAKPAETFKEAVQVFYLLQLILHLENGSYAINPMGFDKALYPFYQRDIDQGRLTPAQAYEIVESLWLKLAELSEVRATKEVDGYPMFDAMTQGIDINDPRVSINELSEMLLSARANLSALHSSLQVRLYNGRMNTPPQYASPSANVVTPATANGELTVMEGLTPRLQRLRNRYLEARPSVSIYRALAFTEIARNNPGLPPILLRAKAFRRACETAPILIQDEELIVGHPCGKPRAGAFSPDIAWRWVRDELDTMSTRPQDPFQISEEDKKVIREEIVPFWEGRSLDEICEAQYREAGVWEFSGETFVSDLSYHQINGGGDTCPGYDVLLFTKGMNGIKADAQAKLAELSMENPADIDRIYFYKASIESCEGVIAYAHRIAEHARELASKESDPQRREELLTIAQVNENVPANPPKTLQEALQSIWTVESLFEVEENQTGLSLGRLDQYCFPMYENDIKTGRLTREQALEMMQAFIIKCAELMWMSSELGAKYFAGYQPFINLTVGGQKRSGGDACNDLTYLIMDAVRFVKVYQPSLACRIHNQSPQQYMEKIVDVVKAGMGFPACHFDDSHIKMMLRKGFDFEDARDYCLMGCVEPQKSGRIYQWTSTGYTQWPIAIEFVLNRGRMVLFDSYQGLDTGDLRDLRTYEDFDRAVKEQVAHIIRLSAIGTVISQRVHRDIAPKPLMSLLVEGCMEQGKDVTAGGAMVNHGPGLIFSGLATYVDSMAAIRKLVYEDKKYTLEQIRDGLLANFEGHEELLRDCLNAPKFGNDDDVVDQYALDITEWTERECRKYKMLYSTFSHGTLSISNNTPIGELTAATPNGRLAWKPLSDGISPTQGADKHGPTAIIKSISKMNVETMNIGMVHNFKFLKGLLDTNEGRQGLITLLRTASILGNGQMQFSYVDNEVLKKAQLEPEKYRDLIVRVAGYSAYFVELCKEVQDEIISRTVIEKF
Chain of CutC from Proteus mirabilis (B4EYG0 entry or part of it, further chain): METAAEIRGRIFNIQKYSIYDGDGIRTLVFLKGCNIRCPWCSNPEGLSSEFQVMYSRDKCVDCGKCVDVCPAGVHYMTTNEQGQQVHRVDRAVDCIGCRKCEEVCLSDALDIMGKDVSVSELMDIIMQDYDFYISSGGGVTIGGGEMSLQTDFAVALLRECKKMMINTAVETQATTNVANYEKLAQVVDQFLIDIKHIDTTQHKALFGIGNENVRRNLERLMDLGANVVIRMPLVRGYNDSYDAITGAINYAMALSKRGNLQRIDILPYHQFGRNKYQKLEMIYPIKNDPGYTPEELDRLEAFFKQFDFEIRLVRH

With `C[N+]1(CF)CCC[C@H]1CO.[I-]` (stereo partly drawn) [Compound 109, (2S)-1-(fluoromethyl)-2-(hydroxymethyl)-1-methylpyrrolidin-1-ium iodide], the IC50 in data set [1] came to 420 nM. Besides, in data set [2], the IC50 was 620 nM. Further, in the data set on CutC/D enzyme (Table 4g, 116 mg/kg oral gavage days 1-3), the “% change from vehicle control + choline diet” value (“% change” for short) is −90%. The “Mean plasma TMAO” value in the data set on CutC/D enzyme (Table 4g, 116 mg/kg oral gavage days 1-3, plasma 20 h after last gavage) turned out to be 2.71 µM. Further, in data set [3] (Caco-2, pH 7.4), the Papp A→B at 2 h, 1 µM stood at 0.6 ×10⁻⁶ cm/s and the Papp B→A at 2 h, 1 µM was found to be 0.5 ×10⁻⁶ cm/s.
Turning to `C#CC[N+](C)(CF)CCO[C@@H]1O[C@H](COC(C)=O)[C@@H](OC(C)=O)[C@H](OC(C)=O)[C@H]1OC(C)=O` (stereo partly drawn) [Compound 77, (fluoromethyl)(methyl)(prop-2-yn-1-yl)(2-{[(2R,3R,4S,5R,6R)-3,4,5-tris(acetyloxy)-6-[(acetyloxy)methyl]oxan-2-yl]oxy}ethyl)azanium], the half-inhibitory concentration (IC50) in data set [2] is at least 10000 nM. Moreover, the Papp A→B at 2 h, 1 µM in data set [3] (setting [4]) was 0.218 ×10⁻⁶ cm/s. In addition, the Papp B→A at 2 h, 1 µM in data set [3] (setting [5]) is 0.337 ×10⁻⁶ cm/s.
With `C#CC[N+]1(C)CCCN1.[I-]` (stereo not drawn) [Compound 125, 1-methyl-1-(prop-2-yn-1-yl)pyrazolidin-1-ium Iodide], the 50% inhibitory concentration (IC50) in data set [2] worked out at 190 nM. Besides, the “% change” value in the data set with CutC/D enzyme (Table 4g, 9.8 mg/kg oral gavage days 1-3) is −6%; with CutC/D enzyme (Table 4g, 97.7 mg/kg oral gavage days 1-3), 18%. For the same compound, the “Mean plasma TMAO” value is 26.2 µM in the data set on CutC/D enzyme (Table 4g, 9.8 mg/kg oral gavage days 1-3, plasma 20 h after last gavage) and 32.8 µM with CutC/D enzyme (Table 4g, 97.7 mg/kg oral gavage days 1-3, plasma 20 h after last gavage). This compound registered a Papp A→B at 2 h, 1 µM in data set [3] (Caco-2, pH 7.4) of 0.466 ×10⁻⁶ cm/s. In data set [3] (Caco-2, pH 7.4), this compound came in with a Papp B→A at 2 h, 1 µM of 0.482 ×10⁻⁶ cm/s.
On to `C#CC[N+](C)(C)CCO.[Br-]` [Compound J60, N-(2-hydroxyethyl)-N,N-dimethylprop-2-yn-1-aminium Iodide], for which the “% change” value with CutC/D enzyme (Table 4a, 10 mg/kg oral gavage days 1-3) is −28.46%; with CutC/D enzyme (Table 4a, 33 mg/kg oral gavage days 1-3) it was −60.39%; in the data set with CutC/D enzyme (Table 4a, 100 mg/kg oral gavage days 1-3) it was −87.29%; in the data set on CutC/D enzyme (Table 4c, 100 mg/kg oral gavage days 1-3), −74.22%; in the data set on CutC/D enzyme (Table 4e, 100 mg/kg oral gavage days 1-3), −86%; in the data set with CutC/D enzyme (Table 4f, 100 mg/kg oral gavage days 1-3), −81%. In addition, the “% change” value in the data set on CutC/D enzyme (Table 4g, 100 mg/kg oral gavage days 1-3) is recorded as −53%; with CutC/D enzyme (Table 4h, 100 mg/kg oral gavage days 1-3), −80%; with CutC/D enzyme (Table 4d, 100 mg/kg oral gavage days 1-3), −68%. Further, the “Mean plasma TMAO” value with CutC/D enzyme (Table 4a, 10 mg/kg oral gavage days 1-3, plasma 20 h after last gavage) was 31.06 µM; in the data set with CutC/D enzyme (Table 4a, 33 mg/kg oral gavage days 1-3, plasma 20 h after last gavage), 17.20 µM; in the data set with CutC/D enzyme (Table 4a, 100 mg/kg oral gavage days 1-3, plasma 20 h after last gavage), 5.52 µM; in the data set on CutC/D enzyme (Table 4b, 10 mg/kg oral gavage days 1-3, plasma 20 h after last gavage, 10 mg/kg) it was 27.4 µM and 24.7 µM; in the data set on CutC/D enzyme (Table 4c, 100 mg/kg oral gavage days 1-3, plasma 20 h after last gavage), 5.41 µM; in the data set with CutC/D enzyme (Table 4e, 100 mg/kg oral gavage days 1-3, plasma 20 h after last gavage) it was 3.81 µM. Further, the “Mean plasma TMAO” value in the data set with CutC/D enzyme (Table 4f, 100 mg/kg oral gavage days 1-3, plasma 20 h after last gavage) is 6.20 µM; with CutC/D enzyme (Table 4g, 100 mg/kg oral gavage days 1-3, plasma 20 h after last gavage) it was 13.1 µM; with CutC/D enzyme (Table 4h, 100 mg/kg oral gavage days 1-3, plasma 20 h after last gavage) it was 8.72 µM; in the data set with CutC/D enzyme (Table 4d, 100 mg/kg oral gavage days 1-3, plasma 20 h after last gavage) it was 6.00 µM. Also, the Papp A→B at 2 h, 1 µM in data set [3] (setting [4]) is 11.1 ×10⁻⁶ cm/s. Further, the Papp B→A at 2 h, 1 µM in data set [3] (setting [5]) worked out at 6.23 ×10⁻⁶ cm/s.
In the case of `C[N+](C)(CCO)CC1CC1.[Br-]` [Compound 107, N-(cyclopropylmethyl)-2-hydroxy-N,N-dimethylethan-1-aminium Bromide], the IC50 in data set [1] and in data set [2] was at least 10000 nM in each case. For the same compound, the Papp A→B at 2 h, 1 µM in data set [3] (setting [4]) was found to be 26.8 ×10⁻⁶ cm/s. In addition, the basolateral-to-apical permeability (Papp B→A) at 2 h, 1 µM in data set [3] (setting [5]) was 31.1 ×10⁻⁶ cm/s.
`C[N+](C)(CCO)C1CC1.[I-]` [Compound 111, N-(2-hydroxyethyl)-N,N-dimethylcyclopropanaminium Iodide]: the IC50 in data set [1] was 220 nM; in data set [2], 140 nM and 270 nM. The Papp A→B at 2 h, 1 µM in data set [3] (Caco-2, pH 7.4) came to 0.8 ×10⁻⁶ cm/s. In addition, the Papp B→A at 2 h, 1 µM in data set [3] (Caco-2, pH 7.4) came out at 0.8 ×10⁻⁶ cm/s.
